The values below come from ChEMBL document CHEMBL1909046, “DrugMatrix in vitro pharmacology data”.

One test concerns the target T1, Caspase-1 (Homo sapiens, UniProt P29466).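 Note: Caspase-1 enzyme inhibition assay with a peptide substrate; in other assays of this panel Not Active means under 50% inhibition at 10 µM.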
T1 sequence (P29466 whole entry): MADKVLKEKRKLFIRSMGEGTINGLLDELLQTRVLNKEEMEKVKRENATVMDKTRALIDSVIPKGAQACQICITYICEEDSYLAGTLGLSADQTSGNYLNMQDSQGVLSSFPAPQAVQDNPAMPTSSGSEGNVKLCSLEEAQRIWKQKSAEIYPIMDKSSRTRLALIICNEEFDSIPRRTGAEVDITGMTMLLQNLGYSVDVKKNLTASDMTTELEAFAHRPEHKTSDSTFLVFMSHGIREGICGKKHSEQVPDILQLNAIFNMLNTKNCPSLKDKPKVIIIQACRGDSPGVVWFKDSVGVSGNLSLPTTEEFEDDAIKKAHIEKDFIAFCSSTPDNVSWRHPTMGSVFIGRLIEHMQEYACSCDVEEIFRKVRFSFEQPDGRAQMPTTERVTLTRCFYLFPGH
On the set-up: species or system Escherichia coli.

In another test the target is Adenosine receptor A2a (Homo sapiens, UniProt P29274). Description: DRUGMATRIX: Adenosine A2A radioligand binding (ligand: […]). The test is classed as cell membranes, HEK293, Membrane. As to conditions: hek293; Not Active = under 50% inhibition at 10 µM.
The target in test [1] is T2, 5-hydroxytryptamine receptor 2C (Homo sapiens, UniProt P28335).
T2 sequence (P28335 whole entry): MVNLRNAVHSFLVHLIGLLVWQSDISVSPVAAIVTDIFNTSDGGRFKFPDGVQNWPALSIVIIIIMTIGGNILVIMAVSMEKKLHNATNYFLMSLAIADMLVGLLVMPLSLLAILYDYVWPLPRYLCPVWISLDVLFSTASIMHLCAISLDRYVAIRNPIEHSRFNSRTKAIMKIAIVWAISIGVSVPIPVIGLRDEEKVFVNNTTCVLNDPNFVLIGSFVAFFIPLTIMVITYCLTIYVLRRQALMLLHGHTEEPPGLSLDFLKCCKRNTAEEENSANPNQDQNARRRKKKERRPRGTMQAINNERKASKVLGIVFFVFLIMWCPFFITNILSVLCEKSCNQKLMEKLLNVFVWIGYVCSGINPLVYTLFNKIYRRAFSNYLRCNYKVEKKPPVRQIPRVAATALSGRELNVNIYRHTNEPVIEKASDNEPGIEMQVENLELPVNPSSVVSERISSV
Description: DRUGMATRIX: Serotonin (5-Hydroxytryptamine) 5-HT2C radioligand binding (ligand: [3H] Mesulergine). The test is classed as cell membranes, CHO-K1, Membrane. The settings on record: Not Active = under 50% inhibition at 10 µM.

Another test has as its target T3, Thromboxane-A synthase (Homo sapiens, UniProt P24557).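 Note: enzyme inhibition assay with PGH2 supplied as substrate; in other assays of this panel Not Active means under 50% inhibition at 10 µM.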
T3 sequence (P24557 whole entry): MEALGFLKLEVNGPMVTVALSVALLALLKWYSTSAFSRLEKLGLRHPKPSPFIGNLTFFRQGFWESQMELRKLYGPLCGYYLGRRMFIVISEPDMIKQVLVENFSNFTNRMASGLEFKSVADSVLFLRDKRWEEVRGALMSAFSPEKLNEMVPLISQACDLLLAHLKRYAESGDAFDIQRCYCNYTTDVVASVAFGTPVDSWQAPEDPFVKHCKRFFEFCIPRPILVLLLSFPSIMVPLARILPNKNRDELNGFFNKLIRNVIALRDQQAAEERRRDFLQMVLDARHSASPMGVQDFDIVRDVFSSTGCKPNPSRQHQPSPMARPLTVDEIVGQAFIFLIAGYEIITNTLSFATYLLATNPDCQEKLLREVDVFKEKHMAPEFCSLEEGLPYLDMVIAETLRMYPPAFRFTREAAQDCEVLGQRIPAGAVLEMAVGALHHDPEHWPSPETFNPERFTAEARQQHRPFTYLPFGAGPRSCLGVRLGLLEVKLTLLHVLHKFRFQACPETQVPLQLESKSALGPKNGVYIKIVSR
Description: biochemical. The format is tissue-based, Platelet.

What is called IC50 is the concentration that inhibits the measured activity by half. As usually defined, the Ki is a dissociation constant, usually derived from enzyme kinetics or from competition with a known ligand.

Adenosine receptor A2a, sequence (P29274 whole entry): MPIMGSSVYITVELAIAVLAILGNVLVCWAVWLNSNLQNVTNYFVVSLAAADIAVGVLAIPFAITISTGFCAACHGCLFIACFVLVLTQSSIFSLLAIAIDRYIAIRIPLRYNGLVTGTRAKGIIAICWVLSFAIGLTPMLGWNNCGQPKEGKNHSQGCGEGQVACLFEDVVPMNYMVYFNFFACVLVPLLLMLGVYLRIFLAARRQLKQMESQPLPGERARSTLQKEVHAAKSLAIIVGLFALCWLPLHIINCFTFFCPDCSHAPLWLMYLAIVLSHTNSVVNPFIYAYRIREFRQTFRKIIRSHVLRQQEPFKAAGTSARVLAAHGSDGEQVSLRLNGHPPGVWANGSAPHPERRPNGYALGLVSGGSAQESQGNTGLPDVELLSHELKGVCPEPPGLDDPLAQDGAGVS

With `NC(=O)CN1CCCC1=O`, the IC50 result (against Caspase-1; on Adenosine receptor A2a; in test [1] (cho-k1); against Thromboxane-A synthase (platelet)) was “Not Active” in each case.

`CO[C@H]1O[C@@H]2O[C@@]3(C)CC[C@H]4[C@H](C)CC[C@@H]([C@H]1C)[C@@]24OO3`: the IC50 entry (against Caspase-1; on Adenosine receptor A2a; in test [1] (cho-k1); on Thromboxane-A synthase (platelet)) was “Not Active” in each case.

As to `Nc1ccc(Cc2ccc(N)cc2)cc1`, the IC50 entry (against Caspase-1; on Adenosine receptor A2a; in test [1] (cho-k1); against Thromboxane-A synthase (platelet)) was “Not Active” in each case.

In the case of `CC(=O)Nc1ccc2c(c1)Cc1ccccc1-2` [2-ACETYLAMINOFLUORENE], the IC50 result against Caspase-1 is “Not Active”; at Adenosine receptor A2a it was “Not Active”; in test [1] (read-out: IC50), 2140 nM; against Thromboxane-A synthase (platelet), “Not Active”. In addition, in test [1] (read-out: Ki), the Ki is 1120 nM.

In the case of `O=C(Nc1ccc(Cl)c(Cl)c1)c1cc(Cl)cc(Cl)c1O` [3,3',4',5-TETRACHLOROSALICYLANILIDE], the IC50 entry was “Not Active” on Caspase-1, “Not Active” at Adenosine receptor A2a, “Not Active” in test [1] (cho-k1) and 4.93 µM at Thromboxane-A synthase (read-out: IC50).

As to `CCN1C[C@]2(COC)[C@H](O)C[C@H](OC)[C@@]34[C@@H]5C[C@@]6(O)[C@H](OC(=O)c7ccccc7)[C@@H]5[C@@](OC(C)=O)([C@@H]([C@H](OC)[C@H]23)[C@@H]14)[C@@H](O)[C@@H]6OC` [ACONITINE], the IC50 result (against Caspase-1; at Adenosine receptor A2a; in test [1] (cho-k1); at Thromboxane-A synthase (platelet)) was “Not Active” throughout.

Consider `OC[C@H]1O[C@@H]2O[C@H]3[C@H](O)[C@@H](O)[C@@H](O[C@H]4[C@H](O)[C@@H](O)[C@@H](O[C@H]5[C@H](O)[C@@H](O)[C@@H](O[C@H]6[C@H](O)[C@@H](O)[C@@H](O[C@H]7[C@H](O)[C@@H](O)[C@@H](O[C@H]1[C@H](O)[C@H]2O)O[C@@H]7CO)O[C@@H]6CO)O[C@@H]5CO)O[C@@H]4CO)O[C@@H]3CO` [ALFADEX], for which the IC50 entry (at Caspase-1; at Adenosine receptor A2a; in test [1] (cho-k1); at Thromboxane-A synthase (platelet)) was “Not Active” each time.

On to `Oc1ncnc2[nH]ncc12` [ALLOPURINOL], for which the IC50 result (against Caspase-1; on Adenosine receptor A2a; in test [1] (cho-k1); on Thromboxane-A synthase (platelet)) was “Not Active” throughout.

Regarding `C=CCO` [ALLYL ALCOHOL], the IC50 result (at Caspase-1; on Adenosine receptor A2a; in test [1] (cho-k1); on Thromboxane-A synthase (platelet)) was “Not Active” throughout.

As for `Nc1nc(N)c2nc(CNc3ccc(C(=O)N[C@@H](CCC(=O)O)C(=O)O)cc3)cnc2n1` [AMINOPTERIN], the IC50 entry (against Caspase-1; on Adenosine receptor A2a; in test [1] (cho-k1); against Thromboxane-A synthase (platelet)) was “Not Active” throughout.

On to `C[C@@H]1[C@H](O)[C@@H](C)/C=C/C=C/C=C/C=C/C=C/C=C/C=C/[C@H](O[C@@H]2O[C@H](C)[C@@H](O)[C@H](N)[C@@H]2O)C[C@@H]2O[C@](O)(C[C@@H](O)C[C@@H](O)[C@H](O)CC[C@@H](O)C[C@@H](O)CC(=O)O[C@H]1C)C[C@H](O)[C@H]2C(=O)O` [AMPHOTERICIN B], for which the concentration for half-maximal inhibition (IC50) entry (against Caspase-1; on Adenosine receptor A2a; in test [1] (cho-k1); against Thromboxane-A synthase (platelet)) was “Not Active” each time.

Consider `CC(C)(C#N)c1cc(Cn2cncn2)cc(C(C)(C)C#N)c1` [ANASTROZOLE], for which the IC50 result (against Caspase-1; on Adenosine receptor A2a; in test [1] (cho-k1); on Thromboxane-A synthase (platelet)) was “Not Active” in each case.

With `CC(C)NCC(O)COc1ccc(CC(N)=O)cc1` (stereo not given) [ATENOLOL], the IC50 result (on Caspase-1; at Adenosine receptor A2a; in test [1] (cho-k1); against Thromboxane-A synthase (platelet)) was “Not Active” in each case.

In the case of `NCC(CC(=O)O)c1ccc(Cl)cc1` (stereo not given) [BACLOFEN], the IC50 entry (against Caspase-1; on Adenosine receptor A2a; in test [1] (cho-k1); against Thromboxane-A synthase (platelet)) was “Not Active” throughout.

Take `O=C(O)c1ccccc1` [BENZOIC ACID]: the IC50 entry (at Caspase-1; at Adenosine receptor A2a; in test [1] (cho-k1); against Thromboxane-A synthase (platelet)) was “Not Active” in each case.

Turning to `c1ccc2sc(SSc3nc4ccccc4s3)nc2c1` [BENZOTHIAZYL DISULFIDE], the IC50 result (on Caspase-1; at Adenosine receptor A2a; in test [1] (cho-k1); at Thromboxane-A synthase (platelet)) was “Not Active” each time.

On to `OC[C@H]1O[C@@H]2O[C@H]3[C@H](O)[C@@H](O)[C@@H](O[C@H]4[C@H](O)[C@@H](O)[C@@H](O[C@H]5[C@H](O)[C@@H](O)[C@@H](O[C@H]6[C@H](O)[C@@H](O)[C@@H](O[C@H]7[C@H](O)[C@@H](O)[C@@H](O[C@H]8[C@H](O)[C@@H](O)[C@@H](O[C@H]1[C@H](O)[C@H]2O)O[C@@H]8CO)O[C@@H]7CO)O[C@@H]6CO)O[C@@H]5CO)O[C@@H]4CO)O[C@@H]3CO` [BETADEX], for which the IC50 entry (against Caspase-1; on Adenosine receptor A2a; in test [1] (cho-k1); at Thromboxane-A synthase (platelet)) was “Not Active” throughout.

For `C[C@H]1C[C@H]2[C@@H]3CCC4=CC(=O)C=C[C@]4(C)[C@@]3(F)[C@@H](O)C[C@]2(C)[C@@]1(O)C(=O)CO` [BETAMETHASONE], the IC50 entry (against Caspase-1; on Adenosine receptor A2a; in test [1] (cho-k1); against Thromboxane-A synthase (platelet)) was “Not Active” in each case.

On to `CC(C)(c1ccc(O)cc1)c1ccc(O)cc1` [BISPHENOL A], for which the IC50 entry (against Caspase-1; at Adenosine receptor A2a; in test [1] (cho-k1); at Thromboxane-A synthase (platelet)) was “Not Active” throughout.

Consider `Cc1c(N)nc([C@H](CC(N)=O)NC[C@H](N)C(N)=O)nc1C(=O)N[C@H](C(=O)N[C@H](C)[C@@H](O)[C@H](C)C(=O)N[C@H](C(=O)NCCc1nc(-c2nc(C(=O)NCCC[S+](C)C)cs2)cs1)[C@@H](C)O)[C@@H](O[C@@H]1O[C@@H](CO)[C@@H](O)[C@H](O)[C@@H]1O[C@H]1O[C@H](CO)[C@@H](O)[C@H](OC(N)=O)[C@@H]1O)c1c[nH]cn1.[Br-]` [BLEOMYCIN A2], for which the IC50 result (against Caspase-1; on Adenosine receptor A2a; in test [1] (cho-k1); on Thromboxane-A synthase (platelet)) was “Not Active” in each case.

Take `CC12CCC(CC1=O)C2(C)C` (stereo not given) [CAMPHOR]: the IC50 result (against Caspase-1; on Adenosine receptor A2a; in test [1] (cho-k1); on Thromboxane-A synthase (platelet)) was “Not Active” each time.

As for `Cl.NC[C@H]1CC[C@H](C(=O)Oc2ccc(CCC(=O)O)cc2)CC1` [CETRAXATE HYDROCHLORIDE], the IC50 result (at Caspase-1; on Adenosine receptor A2a; in test [1] (cho-k1); against Thromboxane-A synthase (platelet)) was “Not Active” each time.

As to `CC1(COc2ccc(CC3SC(=O)NC3=O)cc2)CCCCC1` (stereo not given) [CIGLITAZONE], the IC50 result (on Caspase-1; at Adenosine receptor A2a; in test [1] (cho-k1); at Thromboxane-A synthase (platelet)) was “Not Active” throughout.

In the case of `CC(C)Cc1ccc([C@H](C)C(=O)O)cc1` [DEXIBUPROFEN], the IC50 entry (against Caspase-1; at Adenosine receptor A2a; in test [1] (cho-k1); against Thromboxane-A synthase (platelet)) was “Not Active” throughout.

With `O=c1[nH]cnc2c1ncn2[C@H]1CC[C@@H](CO)O1` [DIDANOSINE], the IC50 result (against Caspase-1; on Adenosine receptor A2a; in test [1] (cho-k1); against Thromboxane-A synthase (platelet)) was “Not Active” each time.

In the case of `ClC1=C(Cl)[C@]2(Cl)[C@@H]3[C@@H]4C[C@@H]([C@H]5O[C@@H]45)[C@@H]3[C@@]1(Cl)C2(Cl)Cl` [DIELDRIN], the IC50 entry (against Caspase-1; on Adenosine receptor A2a; in test [1] (cho-k1); against Thromboxane-A synthase (platelet)) was “Not Active” throughout.
